From patent US20140213445A1, “Use of Pesticidal Active 3-Arylquinazolin-4-One Derivatives in Soil Application Methods” (BASF SE, priority 2011, published 2014) come the findings set out here.

Bounds are passed on as bounds.

Assay [1] has as its system 2-Spotted Spider Mite (Tetranychus urticae). Nature of the assay: Test B.1.1 Foliar assay 2-spotted spider mite on Sieva lima bean plants. It counts as in vivo. The following applies: 120 h, test solution 100 ppm, infested lima bean plants dipped, counts after 5 days, read-out: mortality in comparison with untreated controls. On the procedure: The active compounds were formulated in 50:50 (vol:vol) acetone:water and 100 ppm Kinetica™ surfactant.
At about 2 hours before treatment Sieva lima bean plants with primary leaves expanded to 7-12 cm were infested by placing on each a small piece from an infested leaf (with about 100 mites) taken from the main colony in order to allow the mites to move over to the test plant to lay eggs. The piece of leaf used to transfer the mites was removed. The newly-infested plants were dipped in the test solution and allowed to dry. The test plants were kept under fluorescent light (24 hour photoperiod) at about 25° C. and about 20-40% relative humidity. After 5 days mortality counts were made.

Assay [2] concerns Kanzawa Spider Mite (Tetranychus kanzawai). Description: Test B.1.2 Foliar assay Kanzawa spider mite on potted cotton plants. The assay is classed as in vivo. The following applies: cotton plants sprayed, assessed after 24, 72 and 120 hours, read-out: mortality in comparison with untreated controls.
For assay [3], the system named is root-knot nematode (Meliodogyne spp.) juveniles. Nature of the assay: Test B.2.1 Tomato soil drench against root-knot nematode juveniles. It counts as in vivo. The following applies: soil drench 0.75 mg active ingredient/plant, galls counted at 14 DAT. On the procedure:
Tomatoes were grown in potting soil until the approximate first true leaf stage (about 2 weeks after planting). Tomatoes were transplanted into play sand. Seven days after transplant, technical material of test compound was dissolved in acetone, and then water was added to achieve a final concentration of 50% acetone. 1 mL of solution was pipetted onto the tomato root zone. One day after treatment (DAT), each pot was infested with about 500 root-knot nematode (Meliodogyne spp.) juveniles in 1 ml distilled water. Immediately after infestation, plants were placed in the greenhouse. Plants were top watered and fertilized daily. At 14 DAT, the tomato roots were rinsed off, and the number of galls was counted. Replication was 5-times.

In assay [4] the test system is two spotted spider mites. Nature of the assay: Test B.1.5 Seed treatment assay in cucumber. It counts as in vivo. The following applies: cucumber seed coated 0.5 mg active ingredient/seed, assessed 4 days after release of mites. On the procedure:
Test solution comprising a compound of the present invention is prepared at desired concentration using water and acetone as organic solvent. Cucumber seeds are coated with such prepared test solution applied at the rate of 0.5 mg active ingredient/seed and sown to the pots. After plant emergence (eleven days after treatment & planting), a mixed population of two spotted spider mites is released onto the leaves.
Four days after the release of spider mites, the acaricidal efficacy is measured by means of the rating of the damage caused by spider mites.
Percent damage as lesions was visually assessed, and means were calculated for each treatment. Mean percent damage reduction relative to the solvent blank was calculated as 100−(mean % lesions in treatment/mean % lesions in Solvent blank)*100.

Assay [5] relates to two spotted spider mites (Tetranychus urticae). The following applies: soil drench 4 mg active ingredient/plant, mites released 4 days after treatment, assessed 5 days after release.
Assay [6] has as its system two spotted spider mites. Description: Test B.1.4 Seed treatment assay in cotton. The assay is classed as in vivo. The following applies: cotton seed coated 0.5 mg active ingredient/seed, assessed 4 days after release of mites.

As to `Cc1cc(F)c(-n2cnc3ccc(F)cc3c2=O)cc1SCC(F)(F)F` [CE.I.30, 6-Fluoro-3-[2-fluoro-4-methyl-5-2(2,2,2-trifluoroethylsulfanyl)-phenyl]-3H-quinazolin-4-one], in assay [1], the mortality at 100 ppm is at least 70%.
Turning to `Cc1cc(F)c(-n2cnc3ccc(F)cc3c2=O)cc1[S+]([O-])CC(F)(F)F` (centres unmarked) [CE.I.31, 6-Fluoro-3-[2-fluoro-4-methyl-5-2(2,2,2-trifluoroethanesulfinyl)-phenyl]-3H-quinazolin-4-one], the mortality at 100 ppm in assay [2] and in assay [1] was at least 70% in each case. In addition, the “mean percent reduction of galls in comparison with untreated controls” value in assay [3] is “at least 90%”.
On to `Cc1cc(F)c(-n2cnc3ccc(OC(F)(F)F)cc3c2=O)cc1SCC(F)(F)F` [CE.I.32, 6-Trifluoromethoxy-3-[2-fluoro-4-methyl-5-2(2,2,2-trifluoroethylsulfanyl)-phenyl]-3H-quinazolin-4-one], for which the mortality at 100 ppm in assay [1] was at least 70%.
On to `Cc1cc(F)c(-n2cnc3ccc(OC(F)(F)F)cc3c2=O)cc1[S+]([O-])CC(F)(F)F` (centres unmarked) [CE.I.33, 6-Trifluormethoxy-3-[2-fluoro-4-methyl-5-2(2,2,2-trifluoroethanesulfinyl)-phenyl]-3H-quinazolin-4-one], for which the mortality at 100 ppm in assay [2] and in assay [1] was at least 70% each time.
For `Cc1cc(F)c(-n2cnc3ccccc3c2=O)cc1SCC(F)(F)F` [CE.I.34, 2-(2,2,2-trifluoroethylsufanyl)-4-(4-oxo-quinazolin-3-yl)-5-fluoro-toluol], the mortality at 100 ppm in assay [2] and in assay [1] was at least 70% in each case.
For `Cc1cc(F)c(-n2cnc3ccccc3c2=O)cc1[S+]([O-])CC(F)(F)F` (centres unmarked) [CE.I.35, 2-(2,2,2-trifluoroethylsufinyl)-4-(4-oxo-quinazolin-3-yl)-5-fluoro-toluol], the mortality at 100 ppm in assay [2] and in assay [1] was at least 70% throughout. For the same compound, the “mean percent damage reduction in the cotyledon stage” value in the assay with two spotted spider mites [4] was “at least 50%”; in the assay on two spotted spider mites [6], “at least 90%”. In addition, in assay [5], the “mean percent damage reduction in comparison with untreated controls” value is reported as “at least 70%”.

What is called mortality is the percentage killed.
